According to US4555572A, “Pyrazolo[3,4,5-kl]acridine compositions and methods for their production and use” (Warner-Lambert Company, priority 1984, dated 1985):
Counter-ions that a name gives are not always drawn. Like-named read-outs stand apart in the source and are kept apart here.

Columns and labels:
Escherichia coli = assay: in vitro antibacterial (ABMF) microdilution susceptibility test; assay type: cell-based; details: read-out: ABMF Test M.I.C. E. coli
From the text: (§1) (d) Still another test protocol is the in vitro antibacterial (ABMF) test which is a recognized standard microdilution susceptibility procedure in Mueller-Hinton broth against gram-positive and gram-negative bacterial test organisms. The procedure is a modification of a state-of-the-art procedure reported in Manual of Clinical Microbiology, Lennette, E. H., ed., by Barry, A. L. and C. Thornsberry at pages 463-474 and by Gavan, T. L. and A. L. Barry at pages 459-462, American Society for Microbiology, Washington, 1980.
(§2) In the test, a given bacterial culture is used to inoculate individaul test wells of microdilution trays containing growth medium and test compound, the latter in a microdilution series: 1000, 333, 111, 37, 12, 4, 1.4, and 0.46 micrograms per milliliter. […] For convenience, values are reported for Escherichia coli, Branhamella catarrhalis, Alcaligenes viscolactis, Streptococcus pneumoniae, and Bacillus cereus

Streptococcus pneumoniae = assay: as above; assay type: cell-based; details: read-out: ABMF Test M.I.C. S. pneu.
From the text: as §1, §2

Bacillus cereus = assay: as above; assay type: cell-based; details: read-out: ABMF Test M.I.C. B. cere.
From the text: as §1, §2

Branhamella catarrhalis = assay: as above; assay type: cell-based; details: Moraxella catarrhalis, read-out: ABMF Test M.I.C. B. cata.
From the text: as §1, §2

Alcaligenes viscolactis = assay: as above; assay type: cell-based; details: read-out: ABMF Test M.I.C. A. visc.
From the text: as §1, §2

[1] = system: lymphocytic leukemia P388; assay: in vivo lymphocytic leukemia P388 test; set-up: species or system CD2 F1 mice; details: Mus musculus, P388, ip, 120 h, intraperitoneally once daily for five days, read-out: P388 in vivo T/C × 100
Protocol: Another test protocol is the in vivo lymphocytic leukemia P388 test. The animals used are either male or female CD2 F1 mice, six or seven animals per test group. The tumor transplant is by intraperitoneal injection of dilute ascitic fluid containing cells of lymphocytic leukemia P388. The test compounds are administered intraperitoneally once daily for five consecutive days at various doses following tumor inoculation. The animals are weighed and survivors are recorded on a regular basis for 30 days. A compound is designated "toxic" if, at a given dose, all animals died prior to four days after the first injection of drug. A ratio of survival time for treated (T)/control (C) animals is calculated. A criterion for efficacy is a ratio T/C times 100 greater than or equal to 125. See Cancer Chemotherapy Reports, Part 3, 3, 1 (1972) for a comprehensive discussion of the protocol.

L1210 cells = assay: PDC test, L1210 cell growth; assay type: cell-based, murine; details: Mus musculus, read-out: PDC ID50
Protocol: (c) Another test protocol is the PDC test. L1210 cells, a murine leukemia cell line, were grown in RPMI 1640 supplemented with 10% fetal bovine serum and genamicin (50 μg/ml). Drug dilutions were prepared in the appropriate solvent and 20 μl of each dilution were added to 24-well Linbro tissue culture plates followed by the addition of 2.0 ml of cell suspension containing 3×10^4 cells per ml. Solvent and medium controls were included in each test. After incubation at 37° C. for three days in 5% CO2 in air, the contents of each well were removed and the cells counted in a ZBI Coulter counter. Per cent growth was calculated relative to the controls and the levels of drug activity were expressed as ID50 in terms of molarity (M).

[2] = Mueller-Hinton broth, 37° C., 16-24 hours

MIC (Escherichia coli; [2]) [µg/mL]	MIC (Streptococcus pneumoniae; [2]) [µg/mL]	MIC (Bacillus cereus; [2]) [µg/mL]	MIC (Branhamella catarrhalis; [2]) [µg/mL]	MIC (Alcaligenes viscolactis; [2]) [µg/mL]	IC50 (L1210 cells; 72 h, L1210 cells, three days) [µM]	SMILES	response vs control in vivo at 3.12 mg/kg ([1]; 3.12 mg/kg) [%]	response vs control in vivo at 6.25 mg/kg [1] [%]	response vs control in vivo at 12.5 mg/kg [1] [%]	response vs control in vivo at 25 mg/kg ([1]; 25 mg/kg) [%]	response vs control in vivo at 50 mg/kg ([1]; 50 mg/kg) [%]	MIC (Escherichia coli) [µg/mL]	MIC (Streptococcus pneumoniae) [µg/mL]	MIC (Bacillus cereus) [µg/mL]	MIC (Branhamella catarrhalis) [µg/mL]	MIC (Alcaligenes viscolactis) [µg/mL]	IC50 (L1210 cells; L1210, 72 h) [µM]
4.1	< 0.46	< 0.46	1.4	< 0.46	0.0032	CCOC(=O)Oc1ccc2c(c1)-c1nn(CCN(CC)CC)c3ccc([N+](=O)[O-])c(c13)N2 [Example 32, [2-[2-(Diethylamino)ethyl]-2,6-dihydro-5-nitropyrazolo [3,4,5-kl]acridin-9-yl]carbonic acid ethyl ester, methanesulfonate (salt) (1:1)]	208	168	–	–	–	–	–	–	–	–	–
12.3	1.4	12.3	12.3	1.4	0.6	CN(C)CCn1nc2c3c(c([N+](=O)[O-])ccc31)Nc1ccc(N(C)C)cc1-2 [Example 39, 9-(Dimethylamino)-N,N-dimethyl-5-nitropyrazolo[3,4,5-kl]acridine-2(6H)-ethanamine, methanesulfonate (1:2), dihydrate]	–	126	164	189	–	–	–	–	–	–	–
1.4	< 0.46	4.1	4.1	< 0.46	1.3	CCN(CC)CCCn1nc2c3c(c([N+](=O)[O-])ccc31)Nc1ccc(OC)cc1-2 [Example 43, N,N-Diethyl-9-methoxy-5-nitropyrazolo[3,4,5-kl]acridine-2(6H)-propanamine, methanesulfonate, hydrate (1:1)]	–	165	184	–	202	–	–	–	–	–	–
–	–	–	–	–	–	CCN(CC)CCn1nc2c3c(c([N+](=O)[O-])cc([N+](=O)[O-])c31)Nc1ccc(O)cc1-2 [Example 49, 2-[2-(Diethylamino)ethyl]-2,6-dihydro-3,5-dinitropyrazolo[3,4,5-kl]acridin-9-ol, methanesulfonate, hemihydrate]	–	–	–	–	–	< 0.46	< 0.46	< 0.46	< 0.46	< 0.46	0.0068
–	–	–	–	–	–	CCOc1ccc2c(c1)-c1nn(CCN(CC)CC)c3c([N+](=O)[O-])cc([N+](=O)[O-])c(c13)N2.CS(=O)(=O)O.O [Example 51, 9-Ethoxy-N,N-diethyl-3,5-dinitropyrazolo[3,4,5-kl]acridine-2(6H)-ethanamine, methanesulfonate, hydrate]	–	–	–	–	–	> 1000	111	333	333	< 0.46	0.38
–	–	–	–	–	–	CCN(CC)CCn1nc2c3c(c([N+](=O)[O-])cc([N+](=O)[O-])c31)Nc1ccc(OCc3ccc(OC)cc3)cc1-2.CS(=O)(=O)O [Example 53, N,N-Diethyl-9-[(4-methoxyphenyl)methoxy]-3,5-dinitropyrazolo[3,4,5-kl]acridine-2(6H)-ethanamine, methanesulfonate (1:1)]	–	–	–	–	–	< 0.46	< 0.46	< 0.46	< 0.46	< 0.46	0.0068
–	–	–	–	–	–	COc1ccc2c(c1)-c1nn(CCCN(C)C)c3c([N+](=O)[O-])cc([N+](=O)[O-])c(c13)N2.CS(=O)(=O)O [Example 55, N,N-Dimethyl-3,5-dinitro-9-methoxypyrazolo[3,4,5-kl]acridine-2(6H)-propanamine, methanesulfonate (1:1)]	–	–	–	–	–	< 0.46	< 0.46	< 0.46	< 0.46	< 0.46	0.22
